{"source": "patent US9212396B2", "about": "“Materials and methods useful for affecting tumor cell growth, migration and invasion” (The Ohio State University, priority 2009, dated 2015)", "key": {"miR-221 and miR-222": {"test_system": "miR-221 and miR-222", "test": "qRT-PCR of miR-221 and miR-222 in GTL16 cells", "type": "cell-based, human", "details": "GTL-16 cells, MET inhibition, compared with the untreated cells", "procedure": "Real-time PCR was performed using a standard TaqMan PCR Kit protocol on an Applied Biosystems 7900HT Sequence Detection System (Applied Biosystems). The 10 μl PCR reaction included 0.67 μl RT product, 1 μl TaqMan Universal PCR Master Mix (Applied Biosystems), […]. The reactions were incubated in a 96-well plate at 95° C. for […], followed by 40 cycles of 95° C. for 15 s and 60° C. for 1 min. All reactions were run in triplicate. The threshold cycle (CT) is defined as the fractional cycle number at which the fluorescence passes the fixed threshold. The comparative CT method for relative quantization of gene expression (Applied Biosystems) was used to determine miRNA expression levels. The y axis represents the 2(-CT), or the relative expression of the different miRs. miRs expression was calculated relative to U44 and U48 rRNA and multiplied by 104. Experiments were carried out in triplicate for each data point, and data analysis was performed by using software (Bio-Rad)."}, "PTEN and TIMP3 [1]": {"test_system": "PTEN and TIMP3", "test": "Western blot of PTEN and TIMP3 in GTL16 cells", "type": "cell-based, human", "details": "GTL16 cells treated for 24 h with 4 μM", "procedure": "(§1) Total proteins from NSCLC and HCC cells were extracted with radioimmuno-precipitation assay (RIPA) buffer ([…] NaCl, […] Tris-HCl, pH 7.5, 1% Triton, 0.1% SDS, 0.1% sodium deoxycholate and 1% Nonidet P40). Sample extract (50 μg) was resolved on 7.5-12% SDS-polyacrylamide gels (PAGE) using a mini-gel apparatus (Bio-Rad Laboratories) and transferred to Hybond-C extra nitrocellulose. Membranes were blocked for 1 h with 5% nonfat dry milk in Tris-buffered saline containing 0.05% Tween 20, incubated overnight with primary antibody, washed and incubated with secondary antibody, and visualized by chemiluminescence.\n(§2) The following primary antibodies were used: anti-PTEN, anti-c-Jun, anti-p-c-Jun, anti-Fos, anti-p-JNK, anti-MMP3, anti-Mc1-1 (Santa Cruz), anti-TIMP3 (Millipore) anti-PI3K (BD Biosciences), anti-ERKs, anti-phospho ERKs, anti-AKT, anti-p-AKT, anti-GSK3b, anti-p-GSK3b (Ser9), anti-PAK1 anti-caspase-8,-3 and -9, anti-PARP, anti-cytochrome c (Cell signaling) and anti-MMP9, anti-FADD (Abcam), anti-1-actin antibody (Sigma). A secondary anti-rabbit or anti-mouse immunoglobulin G (IgG) antibody peroxidase conjugate (Chemicon) was used."}, "HCC-derived cell lines": {"test_system": "HCC-derived cell lines", "test": "Proliferation (MTT) assay on HCC-derived cell lines exposed to TRAIL", "type": "cell-based, human", "details": "TRAIL 400 ng/ml 24 h", "procedure": "Cells were plated in 96-well plates in triplicate and incubated at 37° C. in a 5% CO2 incubator. Super-Killer TRAIL (Alexis Biochemicals) was used for 24-48 h at 400 ng ml-1. Cell viability was examined with 3-(4,5-dimethylthiazol-2-yl)-2,5-dipheniltetrazolium bromide (MTT)-Cell Titer 96 AQueous One Solution Cell Proliferation Assay (Promega), according to the manufacturer's protocol. Metabolically active cells were detected by adding 20 μl of MTT to each well. After 1 h of incubation, the plates were analyzed in a Multilabel Counter (Bio-Rad Laboratories). Apoptosis was assessed using Annexin V-FITC apoptosis detection kits followed by flowcytometric analysis and caspase 3/7 activity. Cells were seeded at 1.8106 cells per 100 mm dish, grown overnight in 10% FBS/RPMI, washed with phosphate-buffered saline (PBS) and then treated for 24 h with 400 ng/ml TRAIL. Following incubation, cells were washed with cold PBS and removed from the plates by trypsinization. […] Statistical analysis was done using two sample t test, assuming equal variance, and P value was calculated based on two-tailed test. For detection of caspase 3/7 activity, cells were cultured in 96-well plates and treated with TRAIL 400 ng/ml and analyzed using Caspase-Glo 3/7 Assay kit (Promega) according to the manufacturer's instructions. Continuous variables are expressed as mean values±standard deviation (s.d.)."}, "Calu-1 xenograft": {"test_system": "Calu-1 xenograft", "test": "Calu-1 xenograft in nude mice treated with TRAIL", "type": "in vivo", "details": "Calu-1 shMET vs sh control, TRAIL 10 mg/kg/d ip", "procedure": "(§3) Animal studies were performed according to institutional guidelines. NCI-H460 cells were stable transfected by using shPTEN and TIMP3 plasmids (Santa Cruz); Calu-1 cells were stable transfected with shMET. After the selection in puromycin for 10 days 5 106 (H460) or 7106 (Calu-1) viable cells were injected s.c. into the right flanks of 6-wk-old male nude mice (Charles RiverBreeding Laboratories, Wilmington, Mass.). Treatment started five days (H460 xenograft) or ten days (Calu-1 xenograft) from tumor cell inoculation by daily ip injections of TRAIL/Apo2 (10 mg/kg/d) or vehicle (PBS) for two cycles of 5 days. Tumor size was assessed every five days by a digital caliper. The tumor volumes were determined by measuring the length (1) and the width (w) and calculating the volume (V=lw2/2). 35 days after injection, mice were sacrificed and tumors samples were analyzed by western blot for PTEN, TIMP3 and MET expression. Statistical significance between control and treated animals was evaluated by using Student's t test. Animal experiments were conducted after approval of the Institutional animal care and use committee, Ohio State University."}, "H460 xenograft": {"test_system": "H460 xenograft", "test": "H460 xenograft in nude mice treated with TRAIL", "type": "in vivo", "details": "H460 shPTEN and shTIMP3 vs sh control, TRAIL 10 mg/kg/d ip, 35 days", "procedure": "as §3"}, "PTEN and TIMP3 [2]": {"test_system": "PTEN and TIMP3", "test": "Western blot of PTEN and TIMP3 in Sk-Hep1 cells", "type": "cell-based, human", "details": "Sk-Hep1 cells upon over-expression", "procedure": "as §1, §2"}, "[3]": {"test_system": "AKT/ERKs pathways and Metallopeptidases", "test": "Western blots of AKT/ERKs pathways and metallopeptidases in H460 cells", "type": "cell-based, human", "details": "H460 cells after forced expression", "procedure": "as §1, §2"}, "H460 cells [4]": {"test_system": "H460 cells", "test": "Migration and invasion assay in H460 cells", "type": "cell-based, human", "details": "H460 cells after transfection", "procedure": "(§4) Transwell insert chambers with […] porous membrane (Greiner bio-one) were used for the assay. Cells were washed three times with PBS and added to the top chamber in serum-free media. The bottom chamber was filled with media containing 10% FBS. Cells were incubated for 24 h at 37° C. in a 5% CO2 humidified incubator. To quantify migrating cells, cells on the top chamber were removed by using a cotton-tipped swab, and the migrated cells were fixed in PBS, 25% glutaraldehyde and stained with Crystal Violet stain, visualized under a phase-contrast microscope, and photographed. Cristal violet-stained cells were moreover solubilized in acetic acid and methanol (1:1) and absorbance was measured at 595 nm. The results are means of three independent experiments±S.D.\n(§5) H460 and SK-Hep-1 cells were placed into the top chamber of a BD Falcon HTS FluoroBlok insert with a membrane containing […] pores (BD Biosciences) in […] of serum-free Dulbecco's modified Eagle medium in triplicate. […] The fluorescence of migrated cells was quantified using a fluorometer at excitation wavelengths of 485 nm and emission wavelengths of 530 nm and expressed as arbitrary fluorescence units. Data are expressed as mean±standard error of 4 separate determinations."}, "H460 cells [5]": {"test_system": "H460 cells", "test": "Flow cytometric cell cycle analysis of H460 cells", "type": "cell-based, human", "details": "H460 transfected cells, 72 h"}, "Sk-Hep1 cells": {"test_system": "Sk-Hep1 cells", "test": "Migration and invasion assay in Sk-Hep1 cells", "type": "cell-based, human", "details": "Sk-Hep1 cells after transfection", "procedure": "as §4, §5"}, "PTEN and TIMP3 [6]": {"test_system": "PTEN and TIMP3", "test": "Western blot of PTEN and TIMP3 in H460 cells", "type": "cell-based, human", "details": "72 h, compared to scrambled pre-miR", "procedure": "as §1, §2"}, "PTEN and TIMP3 3′ UTRs": {"test_system": "PTEN and TIMP3 3′ UTRs", "test": "3′UTR luciferase reporter assay in MEG01 cells", "type": "cell-based, human", "details": "wild type 3′ UTRs", "description": "The 3′ UTR of the human PTEN and TIMP3 genes were PCR amplified using the following primers: PTEN Fw 5′-TCTAGAGACTCTGATCCAGAGAATGAACC-3′ [SEQ ID No:1] and PTEN Rw 5′-TCTAGAGTTGCCACAAGTGCAAAGGGGTAGGATGTG-3′ [SEQ ID No:2]; TIMP3 Fw 5′-TCTAGACTGGGCAAAGAAGGGTCTTTCGCAAAGC-3′ [SEQ ID No:3] and TIMP3 Rw 5′ TCTAGATTCCAATAGGGAGGAGGCTGGAGGAGTCTC-3′ [SEQ ID No:4] and cloned downstream of the […] luciferase stop codon in pGL3 control vector (Promega), giving rise to the p3′UTR-PTEN and p3′UTR-TIMP3 plasmids.\nThese constructs were used to generate, by inverse PCR, the p3′-UTRmut-PTEN plasmid-primers: Fw: 5′-GTTGAAAAAAGGTTGGGGGCGGGTGTCATGTATATAC-3 [SEQ ID No:5]; Rw: 5′-GTATATACATGACACCCGCCCCCAACCTTTTTTCAAC-3′[SEQ ID No:6]; p3′-UTRmut-TIMP3 plasmid-primers: Fw: 5′-GTATAATTTAAAATCATTGGGCGGCGGGAGACACTTCTGTATTTC-3′ [SEQ ID No:7]; Rw: 5′-GAAATACAGAAGTGTCTCCCGCCGCCCAATGATTTTAAATTATAC-3′ [SEQ ID No:8].\nMeG01 cells were cotransfected with 1 μg of p3′UTR-PTEN or p3′UTR-TIMP3 and with p3′UTRmut-PTEN or p3′ UTR TIMP3 plasmids and 1 μg of a Renilla luciferase expression construct pRL-TK (Promega) by using Lipofectamine 2000 (Invitrogen). Cells were harvested 24 h post-transfection and assayed with Dual Luciferase Assay (Promega) according to the manufacturer's instructions. […]"}, "PTEN and TIMP3 mRNA": {"test_system": "PTEN and TIMP3 mRNA", "test": "qRT-PCR of PTEN and TIMP3 mRNA in H460 cells", "type": "cell-based, human"}}}
{"molecule": "Cc1[nH]c(/C=C2\\C(=O)Nc3ccc(S(=O)(=O)N(C)c4cccc(Cl)c4)cc32)c(C)c1C(=O)N1CCN(C)CC1", "note": "[SU11274]", "values": [{"measurement": "miR-221 and miR-222 downregulated (qRT-PCR)", "setting": "miR-221 and miR-222", "value": "about 40%"}, {"measurement": "miR-221 and miR-222 targets (PTEN, TIMP3) expression levels, western blot", "setting": "PTEN and TIMP3 [1]", "value": "increased miR-221 and miR-222 targets expression levels"}]}
{"molecule": "TRAIL", "values": [{"measurement": "cell proliferation / TRAIL-induced cell death (MTT)", "setting": "HCC-derived cell lines; HepG2, Sk-Hep1 and Huh 7, low miR-221-miR-222 expression", "value": "underwent TRAIL-induced cell death"}, {"measurement": "cell proliferation / TRAIL-induced cell death (MTT)", "setting": "HCC-derived cell lines; PLC/PRF-5 and Snu-387, high miR-221-miR-222 expression", "value": "did not display sensitivity"}, {"measurement": "tumor growth / sensitivity to TRAIL", "setting": "Calu-1 xenograft", "value": "more sensitive to TRAIL inducing apoptosis"}, {"measurement": "tumor engraftment size / TRAIL resistance", "setting": "H460 xenograft", "value": "increases TRAIL resistance in vivo"}]}
{"molecule": "miR-222: microRNA transfected (100 nM) for enforced expression (GAGACCCAGTAGCCAGATGTAGCT; listed as DNA, chemistry not given here)", "values": [{"measurement": "PTEN and TIMP3 proteins (western blot)", "setting": "PTEN and TIMP3 [2]", "value": "reduced"}, {"measurement": "activation of AKT/ERKs pathways and metallopeptidases (western blots)", "setting": "[3]", "value": "induces the activation of the AKT/ERKs pathways and Metallopeptidases"}, {"measurement": "migratory and invasive capabilities", "setting": "H460 cells [4]", "value": "significant increase"}, {"measurement": "cell cycle distribution", "setting": "H460 cells [5]", "value": "a decrease of G1 and a corresponding increase of the S and G2-M phases"}, {"measurement": "migratory and invasive capabilities", "setting": "Sk-Hep1 cells", "value": "significant increase"}, {"measurement": "endogenous levels of PTEN and TIMP3 (western blot)", "setting": "PTEN and TIMP3 [6]", "value": "significantly reduced the endogenous levels of PTEN and TIMP3"}, {"measurement": "relative luciferase activity of PTEN and TIMP3 3′ UTR reporter constructs", "setting": "PTEN and TIMP3 3′ UTRs", "value": "significantly affected luciferase expression"}, {"measurement": "down-regulation of TIMP3 mRNA (qRT-PCR)", "setting": "PTEN and TIMP3 mRNA; H460 cells after enforced expression", "value": "not observed"}, {"measurement": "PTEN mRNA levels (qRT-PCR)", "setting": "PTEN and TIMP3 mRNA; H460 cells after forced expression", "value": "strongly reduced"}]}
